Test results from EP4273147A1, “SUBSTITUTED SPIROLACTAMS, SALTS THEREOF AND THEIR USE AS HERBICIDALLY ACTIVE SUBSTANCES” (Bayer Aktiengesellschaft, priority 2022, dated 2023).

Assays:
[1] = test system: LOLRI; test: Herbicidal pre-emergence action (Table A3); assay type: in vivo, Lolium rigidum; conditions: visual grading after ca. 3 weeks
Method in brief: (§1)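 Seeds covered with soil after sowing in sandy loam; every pot carried one monocotyledonous and one dicotyledonous weed species as a double sowing.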

[2] = test system: MATIN; test: Herbicidal pre-emergence action (Table A4); assay type: in vivo, Matricaria inodora; conditions: visual grading after ca. 3 weeks
Method in brief: as §1

[3] = test system: SETVI; test: Herbicidal pre-emergence action (Table A5); assay type: in vivo, Setaria viridis; conditions: application rate 320 g/ha; visual grading after ca. 3 weeks
Method in brief: as §1

[4] = test system: STEME; test: Herbicidal pre-emergence action (Table A6); assay type: in vivo, Stellaria media; conditions: visual grading after ca. 3 weeks
Method in brief: as §1

[5] = test system: POAAN; test: Herbicidal pre-emergence action (Table A7); assay type: in vivo, Poa annua; conditions: application rate 320 g/ha; visual grading after ca. 3 weeks
Method in brief: as §1

[6] = test system: POAAN; test: Herbicidal post-emergence action (Table B7); assay type: in vivo, Poa annua; conditions: application rate 1280 g/ha
Method in brief: (§2)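 Plants grown from seed in a greenhouse are treated at the one-leaf stage, two to three weeks after sowing. They then stay under optimum growth conditions for about three weeks before herbicidal activity is scored visually on a 0–100% scale against untreated controls.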

[7] = test system: ALOMY; test: Herbicidal pre-emergence action, section C (Table C2); assay type: in vivo, Alopecurus myosuroides; conditions: application rate 320 g/ha; visual grading after ca. 3 weeks
[8] = test system: ECHCG; test: Herbicidal pre-emergence action, section C (Table C6); assay type: in vivo, Echinochloa crus-galli; conditions: visual grading after ca. 3 weeks
[9] = test system: SETVI; test: Herbicidal pre-emergence action, section C (Table C10); assay type: in vivo, Setaria viridis; conditions: application rate 320 g/ha; visual grading after ca. 3 weeks
[10] = test system: VERPE; test: Herbicidal pre-emergence action, section C (Table C11); assay type: in vivo, Veronica persica; conditions: visual grading after ca. 3 weeks
[11] = test system: VIOTR; test: Herbicidal pre-emergence action, section C (Table C12); assay type: in vivo, Viola tricolor; conditions: application rate 320 g/ha; visual grading after ca. 3 weeks
[12] = test system: ZEAMX; test: Pre-emergence effects on crop plants (Table D1); assay type: in vivo, Zea mays; conditions: crop plant, visual grading after ca. 3 weeks
[13] = test system: TRZAS; test: Pre-emergence effects on crop plants (Table D2); assay type: in vivo, Triticum aestivum; conditions: crop plant; application rate 320 g/ha; visual grading after ca. 3 weeks
[14] = test system: GLXMA; test: Pre-emergence effects on crop plants (Table D4); assay type: in vivo, Glycine max; conditions: crop plant; application rate 80 g/ha; visual grading after ca. 3 weeks
[15] = test system: BRSNW; test: Pre-emergence effects on crop plants (Table D5); assay type: in vivo, Brassica napus; conditions: crop plant; application rate 80 g/ha; visual grading after ca. 3 weeks
[16] = test system: ECHCG; test: Herbicidal post-emergence action, section E (Table E5); assay type: in vivo, Echinochloa crus-galli; conditions: application rate 320 g/ha; assessed visually after ca. 3 weeks
Text: (§3) 2 to 3 weeks after sowing, the test plants were sprayed in the single-leaf stage.

[17] = test system: VERPE; test: Herbicidal post-emergence action, section E (Table E9); assay type: in vivo, Veronica persica; conditions: application rate 320 g/ha; assessed visually after ca. 3 weeks
Text: as §3

[18] = test system: ZEAMX; test: Post-emergence effects on crop plants (Table F1); assay type: in vivo, Zea mays; conditions: application rate 320 g/ha, crop plant ZEAMX
Text: as §3

[19] = test system: TRZAS; test: Post-emergence effects on crop plants (Table F2); assay type: in vivo, Triticum aestivum; conditions: application rate 320 g/ha, crop plant TRZAS
Text: as §3

[20] = test system: ORYZA; test: Post-emergence effects on crop plants (Table F3); assay type: in vivo, Oryza sativa; conditions: application rate 320 g/ha, crop plant ORYZA
Text: as §3

[21] = test system: BRSNW; test: Post-emergence effects on crop plants (Table F5); assay type: in vivo, Brassica napus; conditions: application rate 80 g/ha, crop plant BRSNW
Text: as §3

[22] = test system: ORYZA; test: Pre-emergence effects on crop plants (Table D3); conditions: crop plant; application rate 80 g/ha; visual grading after ca. 3 weeks
Description: Seeds of mono- and dicotyledonous weed plants and crop plants were sown, in plastic or organic planting pots, in sandy loam and covered with soil. The compounds according to the invention, formulated in the form of wettable powders (WP) or as emulsifiable concentrates (EC), were applied to the surface of the covering soil as aqueous suspension or emulsion, with the addition of 0.5% of an additive, at an application rate of 600 1 of water/ha (converted).
Following treatment, the pots were placed in a greenhouse and kept under optimum growth conditions for the test plants.

[23] = test system: ABUTH; test: Herbicidal pre-emergence action (Table A1); assay type: in vivo, Abutilon theophrasti; conditions: application rate 1280 g/ha; visual grading after ca. 3 weeks vs untreated controls (100% = plants have died off, 0% = as control plants)
Text: (§4) Seeds of mono- and dicotyledonous weed plants were sown in plastic pots (double sowings with one species of mono- and one species of dicotyledonous weed plants per pot), in sandy loam, and covered with soil.

[24] = test system: ECHCG; test: Herbicidal pre-emergence action (Table A2); assay type: in vivo, Echinochloa crus-galli; conditions: application rate 320 g/ha; visual grading after ca. 3 weeks
Method in brief: as §1

[25] = test system: ALOMY; test: Herbicidal pre-emergence action (Table A9); assay type: in vivo, Alopecurus myosuroides; conditions: application rate 1280 g/ha; visual grading after ca. 3 weeks
Method in brief: as §1

[26] = test system: VERPE; test: Herbicidal pre-emergence action (Table A11); assay type: in vivo, Veronica persica; conditions: application rate 1280 g/ha; visual grading after ca. 3 weeks
Method in brief: as §1

[27] = test system: ABUTH; test: Herbicidal post-emergence action (Table B1); assay type: in vivo, Abutilon theophrasti; conditions: application rate 1280 g/ha; treated at one-leaf stage; rated visually after about 3 weeks vs untreated controls (100% = plants have died, 0% = like control plants)
Description: (§5) Seeds of mono- and dicotyledonous weed plants were placed in plastic pots in sandy loam soil (doubly sown with in each case one species of mono- or dicotyledonous weed plants per pot), covered with soil and cultivated in a greenhouse under controlled growth conditions. 2 to 3 weeks after sowing, the test plants were treated at the one-leaf stage. […] After the test plants had been kept in the greenhouse under optimum growth conditions for about 3 weeks, the activity of the preparations was rated visually in comparison to untreated controls. For example, 100% activity = the plants have died, 0% activity = like control plants.

[28] = test system: ECHCG; test: Herbicidal post-emergence action (Table B3); assay type: in vivo, Echinochloa crus-galli; conditions: rated visually after about 3 weeks
Method in brief: as §2

[29] = test system: MATIN; test: Herbicidal post-emergence action (Table B6); assay type: in vivo, Matricaria inodora; conditions: application rate 1280 g/ha; rated visually after about 3 weeks
Description: as §5

[30] = test system: VERPE; test: Herbicidal post-emergence action (Table B10); assay type: in vivo, Veronica persica; conditions: application rate 1280 g/ha
Description: as §5

[31] = test system: AMARE; test: Herbicidal pre-emergence action (Table A8); assay type: in vivo, Amaranthus retroflexus; conditions: application rate 1280 g/ha; visual grading after ca. 3 weeks vs untreated controls (100% = plants have died off, 0% = as control plants)
Text: as §4

[32] = test system: KCHSC; test: Herbicidal pre-emergence action (Table A10); assay type: in vivo, Kochia scoparia; conditions: application rate 1280 g/ha; visual grading after ca. 3 weeks
Method in brief: as §1

[33] = test system: DIGSA; test: Herbicidal pre-emergence action (Table A12); assay type: in vivo, Digitaria sanguinalis; conditions: application rate 320 g/ha; visual grading after ca. 3 weeks
Method in brief: as §1

[34] = test system: ABUTH; test: Herbicidal pre-emergence action, section C (Table C1); assay type: in vivo, Abutilon theophrasti; conditions: application rate 320 g/ha; visual grading after ca. 3 weeks
[35] = test system: DIGSA; test: Herbicidal pre-emergence action, section C (Table C5); assay type: in vivo, Digitaria sanguinalis; conditions: application rate 320 g/ha; visual grading after ca. 3 weeks
[36] = test system: LOLRI; test: Herbicidal pre-emergence action, section C (Table C7); assay type: in vivo, Lolium rigidum; conditions: application rate 320 g/ha; visual grading after ca. 3 weeks
Description: Seeds of mono- and dicotyledonous weed plants and crop plants were sown, in plastic or organic planting pots, in sandy loam and covered with soil. The compounds according to the invention, formulated in the form of wettable powders (WP) or as emulsifiable concentrates (EC), were applied to the surface of the covering soil as aqueous suspension or emulsion, with the addition of 0.5% of an additive, at an application rate of 600 1 of water/ha (converted). Following treatment, the pots were placed in a greenhouse and kept under optimum growth conditions for the test plants.

| pre-emergence activity against ORYZA [22] [%] | SMILES | pre-emergence activity against LOLRI ([1]; application rate 1280 g/ha) [%] | pre-emergence activity against MATIN ([2]; application rate 1280 g/ha) [%] | pre-emergence activity against SETVI [3] [%] | pre-emergence activity against STEME ([4]; application rate 320 g/ha) [%] | pre-emergence activity against POAAN [5] [%] | post-emergence activity against POAAN [6] [%] | pre-emergence activity against ALOMY [7] [%] | pre-emergence activity against SETVI [9] [%] | pre-emergence activity against VIOTR [11] [%] | post-emergence activity against ZEAMX [18] [%] | post-emergence activity against TRZAS [19] [%] | post-emergence activity against ORYZA [20] [%] | pre-emergence activity against ABUTH [23] [%] | pre-emergence activity against ECHCG [24] [%] | pre-emergence activity against VERPE [26] [%] | post-emergence activity against ABUTH [27] [%] | further results |
| --- | --- | --- | --- | --- | --- | --- | --- | --- | --- | --- | --- | --- | --- | --- | --- | --- | --- | --- |
| 10 | O=C1N(Cc2ccc(Cl)s2)CCCC12CCCN(Cc1ccc(Cl)s1)C2=O (racemic) [I-022] | 90 | 90 | 100 | 100 | 100 | 90 | 90 | 100 | 80 | 0 | 10 | 10 |  |  |  |  | pre-emergence activity against ECHCG ([8]; application rate 320 g/ha): 100%; pre-emergence activity against VERPE ([10]; application rate 80 g/ha): 100%; pre-emergence activity against ZEAMX ([12]; application rate 320 g/ha): 0%; pre-emergence activity against TRZAS [13]: 10%; pre-emergence activity against GLXMA [14]: 20%; pre-emergence activity against BRSNW [15]: 0%; post-emergence activity against ECHCG [16]: 90%; post-emergence activity against VERPE [17]: 80%; post-emergence activity against BRSNW [21]: 20% |
|  | O=C1N(Cc2ccccc2F)CCCC12CCCN(Cc1c(F)cccc1F)C2=O (racemic) [I-031] |  |  | 100 | 90 | 100 | 90 |  |  |  |  |  |  | 90 | 100 | 90 | 90 | pre-emergence activity against LOLRI ([1]; application rate 320 g/ha): 100%; pre-emergence activity against MATIN ([2]; application rate 320 g/ha): 90%; pre-emergence activity against ALOMY [25]: 90%; post-emergence activity against ECHCG ([28]; application rate 320 g/ha): 90%; post-emergence activity against MATIN [29]: 90%; post-emergence activity against VERPE [30]: 90% |
| 20 | O=C1N(Cc2ccccc2)CCCC12CCN(Cc1cccc(F)c1F)C2=O (racemic) [I-039] | 100 | 90 | 100 |  | 100 |  | 100 | 100 | 90 | 20 | 0 | 0 | 90 | 100 | 90 | 90 | pre-emergence activity against STEME ([4]; application rate 1280 g/ha): 90%; pre-emergence activity against AMARE [31]: 90%; pre-emergence activity against KCHSC [32]: 90%; pre-emergence activity against DIGSA [33]: 100%; post-emergence activity against ECHCG ([28]; application rate 1280 g/ha): 90%; pre-emergence activity against ABUTH [34]: 90%; pre-emergence activity against DIGSA [35]: 100%; pre-emergence activity against ECHCG ([8]; application rate 80 g/ha): 100%; pre-emergence activity against LOLRI [36]: 90%; pre-emergence activity against VERPE ([10]; application rate 320 g/ha): 80%; pre-emergence activity against ZEAMX ([12]; application rate 80 g/ha): 0% |
